The C3SDB collision cross section collection

Assays:
[1] = instrument: TW, calibrated with phosphatidylcholines (ESI+) and phosphatidylethanolamines (ESI-)
[2] = instrument: DT, single field, calibrated with Agilent tune mix (Agilent)

Compound	collision cross section (N2) ([1]; [M+H]+) [Å²]	collision cross section (N2) ([1]; [M-H]-) [Å²]	further results
CCCCCCCCCCCCCCCC(=O)N[C@@H](CO)[C@H](O)CCCCCCCCCCCCCCC [Cer(d18:0/16:0)]	255.1		
CCCCCCCCCCCCC=CC[C@@H](O)[C@H](CO)NC(=O)CCCCCCCCCCCCCCCCC [Cer(d18:0/18:1)]	261.3		
CCCCCCCCCCCCCCCCCCCCCC(=O)N[C@@H](CO)[C@H](O)CCCCCCCCCCCCCCC [Cer(d18:0/22:0)]	274.1		
CCCCCCCCCCCCCCCCCCCCCCCC(=O)N[C@@H](CO)[C@H](O)CCCCCCCCCCCCCCC [Cer(d18:0/24:0)]	279.6		
CCCCCCCCCCCCC=CC[C@@H](O)[C@H](CO)NC(=O)CCCCCCCCCCCCCCCCCCCCCCCCC [Cer(d18:0/26:1)]	284.5		
CCCCCCCCCCCCC=CC[C@@H](O)[C@H](CO)NC(=O)CCCCCCCCCCCCCCC [Cer(d18:1/16:0)]		243.7	
CCCCCCCCCCCCC=CC[C@@H](O)[C@H](CO)NC(=O)CCCCCCCCCCCCCCCCC [Cer(d18:1/18:0)]	261.2	249.7	
CCCCCCCCCCCCC=CC[C@@H](O)[C@H](CO)NC(=O)CCCCCCCCCCCCCCCCCCCCCCCCC [Cer(d18:1/26:0)]	284.4		
CCCCC/C=C\C/C=C\CCCCCCCCCCCC(=O)O[C@@H](CO)COC(=O)CCCCCCCCCCCCC [DG(18:1/18:1)]			collision cross section (N2) ([1]; [M+H-H2O]+): 263.5 Å²
CCCCCCCCCCCCCCCCCC(=O)O[C@H](CO)COP(=O)(O)OCCN [LPE(18:0)]	220.8	212.9	collision cross section (N2) ([2]; [M+Na]+): 227.5 Å²; collision cross section (N2) ([2]; [M-H]-): 214.1 Å²; collision cross section (N2) ([1]; [M+Na]+): 224.8 Å²
CCCCCCCCCCCCCC/C=C\OC[C@@H](O)COP(=O)([O-])OCC[NH3+] [LPE(p16:0)]	215.6	204.7	collision cross section (N2) ([1]; [M+Na]+): 214.7 Å²
CCCCCCCC/C=C\CCCCCC/C=C\OC[C@@H](O)COP(=O)([O-])OCC[NH3+] [LPE(p18:1)]	217.2	208.9	collision cross section (N2) ([1]; [M+Na]+): 216.5 Å²
CCCCCCCC/C=C\CCCCCCCCCC(=O)O[C@H](COC(=O)CCCCCCCCCCCCC)COP(=O)(O)O [PA(34:1)]		254.7	collision cross section (N2) ([2]; [M+H]+): 271 Å²; collision cross section (N2) ([2]; [M+NH4]+): 271.2 Å²; collision cross section (N2) ([2]; [M+Na]+): 268.5 Å²; collision cross section (N2) ([2]; [M-H]-): 255.6 Å²
CCCCC/C=C\C/C=C\CCCCCCCC(=O)O[C@H](COC(=O)CCCCCCCCCCCCCCC)COP(=O)(O)O [PA(34:2)]		253.4	collision cross section (N2) ([2]; [M+H]+): 267.5 Å²; collision cross section (N2) ([2]; [M+NH4]+): 267.8 Å²; collision cross section (N2) ([2]; [M+Na]+): 266.5 Å²
CC/C=C\C/C=C\C/C=C\C/C=C\CCCCC(=O)OC[C@H](COP(=O)(O)O)OC(=O)CCCCCCCCC/C=C\CCCCCCCC [PA(38:5)]		261.6	collision cross section (N2) ([2]; [M+NH4]+): 277.2 Å²
CC/C=C\C/C=C\C/C=C\C/C=C\C/C=C\C/C=C\CCC(=O)O[C@H](COC(=O)CCCCCCCCCCCCCCC)COP(=O)(O)O [PA(38:6)]		260.9	
CCCCCC/C=C\CCCCCCCCCCCC(=O)O[C@H](COC(=O)CCCCCCCCC/C=C\CCCCCC)COP(=O)([O-])OCC[N+](C)(C)C [PC(38:2)]	293.7		collision cross section (N2) ([2]; [M+H]+): 297 Å²
CCCCC/C=C\C/C=C\C/C=C\CCCCC(=O)OC[C@H](COP(=O)([O-])OCC[N+](C)(C)C)OC(=O)CCCCCCCCC/C=C\CCCCCCCC [PC(38:4)]	291.2		collision cross section (N2) ([2]; [M+HCOO]-): 294.4 Å²; collision cross section (N2) ([2]; [M+Na]+): 298.5 Å²; collision cross section (N2) ([1]; [M+CH3COO]-): 296.3 Å²
CCCCC/C=C\C/C=C\C/C=C\C/C=C\CCCCCC(=O)O[C@H](COC(=O)CCCCCCC/C=C\C/C=C\CCCCC)COP(=O)([O-])OCC[N+](C)(C)C [PC(40:6)]	293.3		collision cross section (N2) ([2]; [M+H]+): 296.2 Å²

Compound	collision cross section (N2) ([1]; [M+H]+) [Å²]	collision cross section (N2) ([1]; [M-H]-) [Å²]	further results
CCCC/C=C\C/C=C\CCCCCCCC(=O)OC[C@H](COP(=O)(O)OCCN)OC(=O)CCCCCCC/C=C\CCCCCCCCC [PE(36:3)]	273.7	266.7	collision cross section (N2) ([2]; [M+H]+): 274.9 Å²; collision cross section (N2) ([2]; [M+Na]+): 279.9 Å²; collision cross section (N2) ([2]; [M-H]-): 266.1 Å²
CCCCC/C=C\C/C=C\C/C=C\C/C=C\CCCCCC(=O)O[C@H](COC(=O)CCCCCC/C=C\C/C=C\C/C=C\CCCCC)COP(=O)(O)OCCN [PE(42:7)]	291.7		
CCCCC/C=C\C/C=C\CCCCCCCC(=O)O[C@H](CO/C=C\CCCCCCCCCCCCCC)COP(=O)(O)OCCN [PE(p34:2)]	271.8		collision cross section (N2) ([2]; [M+H]+): 270 Å²; collision cross section (N2) ([2]; [M-H]-): 261.1 Å²
CC/C=C\C/C=C\C/C=C\C/C=C\CCCCC(=O)O[C@H](CO/C=C\CCCCCCCCCCCCCCCC)COP(=O)(O)OCCN [PE(p36:4)]		264.6	collision cross section (N2) ([1]; [M+Na]+): 275.5 Å²
CCCCC/C=C\C/C=C\CCCCCCCCCCCC(=O)O[C@H](CO/C=C\CCCCCCCCCCCCCC)COP(=O)(O)OCCN [PE(p38:2)]	284	272.7	
CCCCC/C=C\C/C=C\CCCCCCCCCC(=O)O[C@H](CO/C=C\CCCCCCCCCCCCCCCCCC)COP(=O)(O)OCCN [PE(p40:2)]	290		collision cross section (N2) ([1]; [M+Na]+): 291.1 Å²
CC/C=C\C/C=C\C/C=C\C/C=C\C/C=C\C/C=C\CCC(=O)O[C@H](CO/C=C\CCCCCCCCCCCCCCCC)COP(=O)(O)OCCN [PE(p40:6)]	283.5	274.4	collision cross section (N2) ([1]; [M+Na]+): 286.8 Å²
CC/C=C\C/C=C\C/C=C\C/C=C\C/C=C\C/C=C\CCC(=O)O[C@H](CO/C=C\CCCCCC/C=C\CCCCCCCC)COP(=O)(O)OCCN [PE(p40:7)]	283		collision cross section (N2) ([1]; [M+Na]+): 281 Å²
CCCCC/C=C\C/C=C\C/C=C\C/C=C\CCCC(=O)OC[C@H](COP(=O)(O)OC[C@@H](O)CO)OC(=O)CCCCCCC/C=C\CCCCCC [PG(36:5)]			collision cross section (N2) ([1]; [M+Na]+): 277.8 Å²
CCCCC/C=C\C/C=C\C/C=C\CCCCCCC(=O)OC[C@H](COP(=O)(O)OC[C@@H](O)CO)OC(=O)CCCCCCCCC/C=C\CCCCCCCC [PG(40:4)]		283.7	
CCCCCCCCCCCCCCCCCCC(=O)OC[C@H](COP(=O)(O)O[C@H]1C(O)C(O)C(O)[C@@H](O)C1O)OC(=O)CCCCCCCCCCCCCCCC (stereo partly specified) [PI(36:0)]			collision cross section (N2) ([1]; [M+Na]+): 298.6 Å²
CCCCC/C=C\C/C=C\C/C=C\C/C=C\CCCC(=O)O[C@H](COC(=O)CCCCCC/C=C\C/C=C\C/C=C\CCCCC)COP(=O)(O)O[C@H]1C(O)C(O)C(O)[C@@H](O)C1O (stereo partly specified) [PI(40:7)]			collision cross section (N2) ([1]; [M+Na]+): 298.8 Å²
CC/C=C\C/C=C\C/C=C\C/C=C\CCCCC(=O)OC[C@H](COP(=O)(O)O[C@H]1C(O)C(O)C(O)[C@@H](O)C1O)OC(=O)CCCCC/C=C\C/C=C\C/C=C\C/C=C\CCCCC (stereo partly specified) [PI(40:8)]			collision cross section (N2) ([1]; [M+Na]+): 296.8 Å²
CCCCCCCC/C=C\CCCCCCCC(=O)OC[C@H](COP(=O)(O)O[C@H]1C(O)C(O)C(O)[C@@H](OP(=O)(O)O)C1O)OC(=O)CCCCCCCCCCCCCCCCC (stereo partly specified) [PIP(36:1)]			collision cross section (N2) ([1]; [M+H-H2O]+): 296.4 Å²
CCCCC/C=C\C/C=C\CCCCCCCC(=O)O[C@H](COC(=O)CCCCCCC/C=C\CCCCCCCC)COP(=O)(O)O[C@H]1C(O)C(O)C(O)[C@@H](OP(=O)(O)O)C1O (stereo partly specified) [PIP(36:3)]			collision cross section (N2) ([1]; [M+H-H2O]+): 292.7 Å²
CCCCC/C=C\C/C=C\C/C=C\C/C=C\CCCC(=O)O[C@H](COC(=O)CCCCCCCCCCCCCCCCC)COP(=O)(O)O[C@H]1C(O)C(O)C(O)[C@@H](OP(=O)(O)O)C1O (stereo partly specified) [PIP(38:4)]			collision cross section (N2) ([1]; [M+H-H2O]+): 300.5 Å²
CCCCCCCCCCCCC=CC[C@@H](O)[C@H](COP(=O)([O-])OCC[N+](C)(C)C)NC(=O)CC=CCCCCCCCCCCCCCC [SM(d18:1/18:1)]	283.2		
CCCCCCCCCCCCC=CC[C@@H](O)[C@H](COP(=O)([O-])OCC[N+](C)(C)C)NC(=O)CCCCCCCCCCCCCCCCCCCCC [SM(d18:1/22:0)]	297.1		
